Consider one molecule from patent publication US20080089860A1, “Therapeutic compositions and methods useful in treating cancer” (priority 2006, published 2008).

Series [1] concerns DS cells. The experiment in a line: DS lymphoma cell growth, MTT assay. The format is cell-based, human. As to conditions: day 3; IFN-alpha 1,000 u/ml. How it is done:
(§1) For cell proliferation assays, cells were grown in 10% FCS culture medium containing various amounts of IFNs and/or sodium stibogluconate in 96 well plates and cultured at 37° C. for 3 or 6 days as indicated. The numbers of viable cells in proliferation assays were determined by MTT assays as described in Phatak et al., J. Immunol. 167, 3391 (2001).
A general note: Tetrazolium assays rely on reduction of a dye to a coloured formazan, in cell work by metabolically active cells.

Series [2] concerns Jak2/Stat5 and cellular protein tyrosine phosphorylation in Baf3 cells. The experiment in a line: Cellular protein phosphorylation and Western blotting in Baf3 cells. The format is cell-based, murine. The procedure:
For induction of cellular protein phosphorylation by sodium stibogluconate or pervanadate, Baf3 cells were incubated in 0.1% FCS-RPMI 1640 medium at 37° C. for 16 hours. The cells were then washed twice in RPMI 1640 medium and incubated with sodium stibogluconate or pervanandate (0.1 mM) for various times prior to termination by lysing cells in cold lysis buffer (50 mM Tris, pH 7.4; 150 mM NaCl; 0.2 mM Na3VO4; 20 mm NaF; 1% Nonidet P-40; 2 mM PMSF; 20 µg/ml of Aprotinin and 1 mM of sodium molybdic acid). To determine the effect of sodium stibogluconate or potassium antimonyl tartrate on IL-3-induced Jak/Stat phosphorylation, Baf3 cells were deprived of the growth factor for 16 hours in 0.1% FCS RPMI 1640 medium and then incubated with or without sodium stibogluconate or potassium antimonyl tartrate for 10 minutes. IL-3 was next added to the cell suspension and incubated for various times. The Cells were then harvested and lysed in cold lysis buffer at 4° C. for 45 minutes. Total cell lysates (TCL) were separated in SDS-PAGE gels, blotted onto nitrocellulose membrane (Schleicher & Schuell), probed with specific antibodies and detected using an enhanced chemiluminescence kit (ECL, Amersham, Arlington Heights, Ill.).

The test system of series [3] is DU145 cells. Briefly: DU145 prostate cancer cell growth, MTT assay. As to conditions: single agent, 50 μg/ml and 100 μg/ml. In kind it is cell-based, human. The procedure: as §1
NIH3T3 (Yi, et al., Blood 85, 87 (1995)), WM9 (Forsberg, et al., Proc. Nat. Acad. Sci. USA 90, 393 (1993)), DU145 (Mickey, et al., Cancer Res. 37, 4049 (1977)), LoVo (Drewinko, et al., Cancer Res. 36, 467 (1976)), HEY (Buick, et al., Cancer Res. 45, 3668 (1985)), U251 (Yoshida, et al., Cancer 50, 410 (1982)), A549 (Giard, et al., J. Natl. Cancer Inst. 51, 1417 (1973)) and SK-N-SH (Helson, et al., Cancer Res. 35, 2594 (1975)) cell lines have been described and were cultured in RPMI 1640 supplemented with 10% fetal calf serum (FCS). For measurement of sodium stibogluconate effects on cell growth in vitro, cells were cultured in the absence (−) or presence (+) of various amounts of sodium stibogluconate for 6 days with viable cells quantified by MTT assays (Mosmann, J. Immunol. Methods 65, 55 (1983)). Percentages of growth inhibition by sodium stibogluconate were calculated (.+−.x %).

The subject of series [4] is Stat1 tyrosine phosphorylation. Briefly: IFN-alpha-induced Stat1 tyrosine phosphorylation, Western blotting. The format is cell-based, human. The procedure:
Cell lysates were prepared by lysing cells in cold lysis buffer for 30 min and cleared by centrifuging at 14,000 rpm at 4° C. for 15 min. For SDS-PAGE, cell lysates were mixed with equal volume of 2×SDS-PAGE sample buffer, heated at 90° C. for 5 min and separated in 10% SDS-PAGE gels. Cellular proteins in SDS-PAGE gels were transferred to nitrocellulose membrane (Schleicher & Schuell, Keene, N.H.), blocked in 5% milk, probed with antibodies and detected by using an enhanced chemiluminescence kit (ECL, Amersham, Arlington Heights, Ill.).
A general note: Immunoblotting shows a protein as a band on a membrane.

For series [5], the system named is TF-1 cells. The experiment in a line: TF-1 cell proliferation assay. The format is cell-based, human. The procedure: The murine hematopoietic cell line Baf3 was maintained in RPMI 1640 medium supplemented with 10% fetal calf serum (FCS) and murine IL-3 (20 units/ml) as described previously in Damen et al., J. Biol. Chem. 270, 23402 (1995). Human myeloid cell line TF-1 was maintained in RPMI 1640 supplemented with 10% FCS and 40 ng/ml of recombinant human GM-CSF as described previously in Thomassen et al., Clin. Immunol. 95, 85 (2000). For cell proliferation assays, cells were washed in 10% FCS medium twice, resuspended in 10% FCS medium, incubated at 37° C. for 16 hours, and then cultured at 37° C. in 10% FCS medium containing various amounts of cytokines, sodium stibogluconate, or potassium antimonyl tartrate for 3-6 days as indicated. The cell numbers in proliferation assays were determined by an MTT assay or by microscopic cell counting as indicated.

For series [6], the system named is WiT49-N1 cells. Briefly: WiT49-N1 Wilms tumor cell growth, MTT assay. In kind it is cell-based, human. As to conditions: day 6 culture; killing at 100 μg/ml. How it is done:
as §1

The subject of series [7] is DU145 tumors. Briefly: DU145 tumors in athymic nude mice, sodium stibogluconate alone. The settings on record: mouse, in vivo. The procedure: Athymic nude mice (nu/nu, NCR), 4 weeks old (Taconic), were inoculated (s.c.) in the flanks with DU145 cells (3×10^6 cells/site) on day 0, Starting on day 2, the mice were subjected to no treatment (Control) or treatment with sodium stibogluconate (12 mg, […], daily, i.m., at the hip area). The dosage of sodium stibogluconate used in the study was similar to the effective daily dose of sodium stibogluconate for the treatment of murine leishmaniasis (Murray, et al. 1988). Tumor volume was measured and calculated using the formula for a prolate spheroid (V=4/3 7 a^2b) (Lindner, et al. 1997). Hematoxylin+Eosin (H.E.) stained tissue sections of internal organs and tumor inoculation sites tissues of the mice were prepared and subjected microscopic evaluation.
Nude mice were inoculated with DU145 cells sub-cutaneously at the shoulder area. Two days after inoculation when tumors were visible, the mice were subjected to no treatment (control) or sodium stibogluconate treatment (daily injection of 440 mg/kg, intermuscular at the hip area). […] Histology of their major organs was unremarkable.

“Also recorded” adds a separate entry of the source.

`O.O.O.O.O.O.O.O.O.O=C([O-])[C@@H]1[O][Sb]2([O-])([O][Sb]34([OH])[O][C@H]([C@H](O)CO)[C@H]([O]3)[C@H](C(=O)[O-])[O]4)[O][C@H]([C@H](O)CO)[C@@H]1[O]2.[Na+].[Na+].[Na+]` [sodium stibogluconate]: the “activity against DS cells” value in series [1] was “modest activity”. Moreover, the “induced cellular protein tyrosine phosphorylation” value in series [2] (Baf3 cells, in comparison with pervanadate (0.1 mM)) was “modest and transient”. In addition, the “phosphotyrosine levels of Jak2 and Stat5 relative to cells without drug treatment” value in series [2] (IL-3-stimulated Baf3 cells, densitometry) was “about twice”. In series [2] (no IL-3, 37 °C for 16 hours), the “Jak2/Stat5 tyrosine phosphorylation by drug alone” value is recorded as “failed to induce”. Moreover, in series [3], the “DU145 cells in day 6 culture” value was “killed all cells; also recorded: complete or near complete killing”. In addition, in series [4], the “IFN-alpha-induced Stat1 tyrosine phosphorylation in WM35 and WiT49-N1 cell lines” value is “failed to enhance”; the “Stat1 tyrosine phosphorylation in DR cells in the absence of IFN-alpha” value is “failed to induce”. The “IFN-alpha-induced Stat1 tyrosine phosphorylation in DR cells” value in series [4] (10 μg/ml, 30 min post-stimulation) was “approximately two folds greater than control”. Further, the “IFN-alpha-induced Stat1 tyrosine phosphorylation in WM9 and DU145 cell lines” value in series [4] (5 hours post-stimulation) is recorded as “Enhanced”. The “GM-CSF-induced proliferation of TF-1 cells” value in series [5] (50 μg/ml, GM-CSF 5-40 ng/ml) was “augmented”. The “effect on GM-CSF-induced cell growth” value in series [5] (low doses 12.5-50 μg/ml) was “no negative effect”. Moreover, in series [6], the “sensitivity of WiT49-N1 cells” value was “sensitive; also recorded: complete or near complete killing”. Besides, in series [7], the “histology of major organs” value is reported as “unremarkable” and the survival of mice entry is on record as “survived until the end of the study”.
